# Tests used:
# [1] = target: T1, recombinant human (rh) KLK5 (Homo sapiens, UniProt Q9Y337); assay: Enzymatic activity of Kallikrein 5 (KLK5), fluorogenic peptide substrate Boc-V-P-R-AMC; type: biochemical
# T1 construct: purchased R&D Systems 1108-SE
# T1 sequence (Q9Y337 23-293): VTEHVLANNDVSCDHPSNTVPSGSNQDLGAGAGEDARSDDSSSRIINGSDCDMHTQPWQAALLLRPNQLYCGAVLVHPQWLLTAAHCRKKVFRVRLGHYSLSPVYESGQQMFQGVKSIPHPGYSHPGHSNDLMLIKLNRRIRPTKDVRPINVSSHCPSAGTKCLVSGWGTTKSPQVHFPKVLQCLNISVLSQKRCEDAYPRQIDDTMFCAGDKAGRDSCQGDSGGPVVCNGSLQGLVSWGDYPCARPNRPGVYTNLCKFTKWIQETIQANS
# Description: Compound 1 was assayed for enzymatic activity of Kallikrein 5 (KLK5) as follows, and its activity compared to that of salicylic acid. The KLK5 activity of compound 1 was calculated as a percentage of KLK5 activity relative to salicylic acid. The KLK5 activity of compound 1 was about 165% relative to the KLK5 activity of salicylic acid.
# In the stratum corneum, skin's outermost layer, cell-to-cell cohesion depends primarily on proteins known as the corneodesmosomes. During skin remodeling and renewal dead cells are shed from the skin surface by the action of native proteases that break down the corneodesmosomes. […] Hypothetically, up-regulation of the activities of these proteases using different active candidates could be utilized to increase the rate of shedding of dead skin, thus providing a natural means for skin exfoliation. To this end, the enzymatic activity of a member of the KLK family, recombinant human (rh) KLK5, was monitored following pre-incubation with actives and measuring the rate of peptide bond cleavage of a synthetic substrate.
# Enzymatic activity of KLK5 was measured by incubating recombinant human (rh) KLK5 protease (R&D Systems, Cat No. 1108-SE) with a specific fluorogenic peptide substrate Boc-V-P-R-AMC (R& D Systems, Cat No. ES011). The substrate is conjugated to a quenched fluorescent group. […] Increase in fluorescence reading indicates an increase in rhKLK5 activity. […] After 60 seconds of incubation, fluorescence was measured at 340 nm (Excitation wavelength) and 485 nm (Emission wavelength) every 1 minute for 7 minutes. Rate (kinetics) of enzyme activity was calculated as follows: Rate of enzyme activity=Change of fluorescent reading (after background correction) Change of reaction time (min) Percent change of activity due to a test compound was calculated by comparing rate of enzyme activity in the presence of the test compound to that of a control without the test compound and statistical significance was calculated using a t-test. […]
# [2] = Skin PAMPA parallel artificial membrane penetration assay; type: in vitro ADME; settings: 50 μM, donor pH 4.25, acceptor pH 7.4, two hours incubation
# Description: Several salicylic acid derivatives were assessed for their ability to penetrate skin. Each of the compounds was formulated in an aqueous buffer, with a final pH of 4.25 at a concentration of 50 μM. The skin permeability of the compounds was measured using a high throughput transdermal permeability model, the parallel artificial membrane penetration assay (Skin PAMPA™), which uses a skin mimetic artificial membrane that simulates the barrier properties of the strateum corneum.
# Briefly, the Skin PAMPA™ assay is a sandwich assay that utilizes two 96-well plate assemblies, one of which acts as the acceptor chambers (comprising a buffer), and one of which acts as the donor chambers (comprising a buffer and the compound to be tested). […] After an incubation period, the donor and acceptor chambers are analyzed for the amount of compound present.
# In the current experiments, the acceptor chamber included an acceptor solution made from Prisma™ HT buffer solution (Pion, Inc.) that was adjusted to a pH of 7.4±0.05 using 1.0 M NaOH, and the donor chamber included a donor solution made from Prisma™ HT buffer solution (Pion, Inc.) that was adjusted to a pH of 4.25±0.05 using 1.0 M NaOH. […] Effective permeability was then calculated by the same method as Sinko et al., Eur. J. Pharm. […]
structure (smiles),measurement,setting,value
CCOC(=O)c1cc2c(c(C(=O)OCC)c1O)CCCC2 [Compound 1],stimulation of KLK5 (in words),[1]; rhKLK5,very potent stimulator of KLK5
same,KLK5 activity as a percentage relative to the KLK5 activity of salicylic acid,"[1]; rhKLK5, rate of enzyme activity relative to salicylic acid",about 165%
same,KLK5 activity as compared to salicylic acid (in words),"[1]; rhKLK5, FIG. 1 asterisk",superior KLK5 activity
same,skin permeability as compared to salicylic acid (in words),[2],higher permeability
